From ChEMBL document CHEMBL3393049, “Syntheses and Antituberculosis Activity of 1,3-Benzothiazinone Sulfoxide and Sulfone Derived from BTZ043” (ACS Med Chem Lett, 2015)
Converted amounts (≈) assume the structure as drawn.

Assays:
[1] = Cytotoxicity against human PC3 cells after 72 hrs by crystal violet biomass reduction assay; format: cell-based, PC-3
Mycobacterium marinum = assay: Antimycobacterial activity against Mycobacterium marinum ATCC 927 assessed as reduction in bacterial growth incubated for 5 days by MABA method; format: functional; settings: ATCC 927, 120 h
[2] = tested on: Mycobacterium tuberculosis; assay: Antimycobacterial activity against Mycobacterium tuberculosis H37Rv ATCC 27294 assessed as reduction in bacterial growth incubated for 7 days under 7H12 medium by MABA method; format: functional; settings: H37Rv ATCC 27294, 168 h
Mycobacterium kansasii = assay: Antimycobacterial activity against Mycobacterium kansasii ATCC 12478 assessed as reduction in bacterial growth incubated for 6 days by MABA method; format: functional; settings: ATCC 12478, 144 h
[3] = Cytotoxicity against human MCF7 cells after 72 hrs by crystal violet biomass reduction assay; format: cell-based
[4] = Cytotoxicity against human HeLa cells after 72 hrs by crystal violet biomass reduction assay; format: cell-based
Mycolicibacterium vaccae = assay: Antimycobacterial activity against Mycobacterium vaccae IMET10670 assessed as reduction in bacterial growth incubated for 18 to 20 hrs by broth microdilution method; format: functional
Pseudomonas aeruginosa = assay: Antibacterial activity against Pseudomonas aeruginosa KW799/61 assessed as reduction in bacterial growth incubated for 18 to 20 hrs by broth microdilution method; format: functional
[5] = tested on: Mycolicibacterium smegmatis; assay: Antimycobacterial activity against Mycobacterium smegmatis str. MC2 155 assessed as reduction in bacterial growth incubated for 18 to 20 hrs by broth microdilution method; format: functional
Staphylococcus aureus = assay: Antibacterial activity against Staphylococcus aureus SG511 assessed as reduction in bacterial growth incubated for 18 to 20 hrs by broth microdilution method; format: functional
Micrococcus luteus = assay: Antibacterial activity against Micrococcus luteus ATCC 10240 assessed as reduction in bacterial growth incubated for 18 to 20 hrs by broth microdilution method; format: functional
[6] = tested on: Mycobacterium tuberculosis; assay: Antimycobacterial activity against Mycobacterium tuberculosis H37Rv ATCC 27294 assessed as reduction in bacterial growth incubated for 7 days under GAS medium by MABA method; format: functional; settings: H37Rv ATCC 27294, 168 h
Acinetobacter baumannii = assay: Antibacterial activity against Acinetobacter baumannii ATCC 17961 assessed as reduction in bacterial growth incubated for 18 to 20 hrs by broth microdilution method; format: functional
Mycolicibacterium aurum = assay: Antimycobacterial activity against Mycobacterium aurum SB66 assessed as reduction in bacterial growth incubated for 18 to 20 hrs by broth microdilution method; format: functional

C[C@H]1COC2(CCN(c3nc(=O)c4cc(C(F)(F)F)cc([N+](=O)[O-])c4[s+]3[O-])CC2)O1 (some centres not stated)
CC50 at 72 h [1]: 15 µM
MIC (Mycobacterium marinum): 0.19 µM (≈ 0.085 µg/mL)
MIC [2]: 0.06 µM (≈ 0.0268 µg/mL)
MIC (Mycobacterium kansasii): 0.3 µM (≈ 0.134 µg/mL)
CC50 at 72 h [3]: > 20 µM
CC50 at 72 h [4]: > 20 µM
MIC (Mycolicibacterium vaccae): < 0.013 µM
MIC (Pseudomonas aeruginosa): > 200 µM
MIC [5]: < 0.013 µM
MIC (Staphylococcus aureus; read-out: MIC): 12.5 µM (≈ 5.59 µg/mL)
MIC (Micrococcus luteus): 50 µM (≈ 22.4 µg/mL)
MIC [6]: < 0.02 µM
MIC (Acinetobacter baumannii): > 200 µM
MIC (Mycolicibacterium aurum): 3.13 µM (≈ 1.4 µg/mL)

C[C@H]1COC2(CCN(c3nc(=O)c4cc(C(F)(F)F)cc([N+](=O)[O-])c4s3)CC2)O1 [BTZ-043]
CC50 at 72 h [1]: > 20 µM
MIC (Mycobacterium marinum): 0.037 µM (≈ 0.016 µg/mL)
MIC [2]: < 0.02 µM
MIC (Mycobacterium kansasii): < 0.02 µM
CC50 at 72 h [3]: > 20 µM
CC50 at 72 h [4]: > 20 µM
MIC (Mycolicibacterium vaccae): 0.002 µM (≈ 0.000863 µg/mL)
MIC (Pseudomonas aeruginosa): > 200 µM
MIC [5]: 0.002 µM (≈ 0.000863 µg/mL)
MIC (Staphylococcus aureus): > 200 µM
MIC (Micrococcus luteus): > 200 µM
MIC [6]: < 0.02 µM
MIC (Acinetobacter baumannii): > 200 µM
MIC (Mycolicibacterium aurum): > 200 µM

C[C@H]1COC2(CCN(C3=NC(=O)c4cc(C(F)(F)F)cc([N+](=O)[O-])c4S3(=O)=O)CC2)O1
CC50 at 72 h [1]: > 20 µM
MIC (Mycobacterium marinum): > 1 µM
MIC [2]: 0.48 µM (≈ 0.222 µg/mL)
MIC (Mycobacterium kansasii): > 1 µM
CC50 at 72 h [3]: > 20 µM
CC50 at 72 h [4]: > 20 µM
MIC (Mycolicibacterium vaccae): < 0.013 µM
MIC (Pseudomonas aeruginosa): > 200 µM
MIC [5]: > 0.5 µM
MIC (Staphylococcus aureus): 200 µM (≈ 92.7 µg/mL)
MIC (Micrococcus luteus): > 200 µM
MIC [6]: 0.51 µM (≈ 0.236 µg/mL)
MIC (Acinetobacter baumannii): > 200 µM
MIC (Mycolicibacterium aurum): > 200 µM

NNC(=O)c1ccncc1 [ISONIAZID]
MIC (Mycobacterium marinum): > 8 µM
MIC [2]: 0.1 µM (≈ 0.0137 µg/mL)
MIC (Mycobacterium kansasii): 3.86 µM (≈ 0.529 µg/mL)
MIC [6]: 0.03 µM (≈ 0.00411 µg/mL)

CO[C@H]1/C=C/O[C@@]2(C)Oc3c(C)c(O)c4c(O)c(c(/C=N/N5CCN(C)CC5)c(O)c4c3C2=O)NC(=O)/C(C)=C\C=C\[C@H](C)[C@H](O)[C@@H](C)[C@@H](O)[C@@H](C)[C@H](OC(C)=O)[C@@H]1C [RIFAMPIN]
MIC (Mycobacterium marinum): 0.23 µM (≈ 0.189 µg/mL)
MIC [2]: 0.05 µM (≈ 0.0411 µg/mL)
MIC (Mycobacterium kansasii): 0.1 µM (≈ 0.0823 µg/mL)
MIC [6]: 0.04 µM (≈ 0.0329 µg/mL)

O=C(O)c1cn(C2CC2)c2cc(N3CCNCC3)c(F)cc2c1=O [CIPROFLOXACIN]
MIC (Mycolicibacterium vaccae): 0.32 µM (≈ 0.106 µg/mL)
MIC (Pseudomonas aeruginosa): 0.156 µM (≈ 0.0517 µg/mL)
MIC [5]: 0.32 µM (≈ 0.106 µg/mL)
MIC (Staphylococcus aureus; read-out: MIC): 0.32 µM (≈ 0.106 µg/mL)
MIC (Micrococcus luteus): 1.25 µM (≈ 0.414 µg/mL)
MIC (Acinetobacter baumannii): 0.156 µM (≈ 0.0517 µg/mL)
MIC (Mycolicibacterium aurum): 0.02 µM (≈ 0.00663 µg/mL)
